Experimental data as given in ChEMBL document CHEMBL4823244, “Synthesis of norisoboldine derivatives and bioactivity assay for inducing the generation of regulatory T cells” (Bioorg Med Chem Lett, 2021).
The source made the active and inactive calls. The rule behind the calls is not given here.

What was measured:
Mus musculus [1] = assay: Induction of Treg cell differentiation in DSS- induced ulcerative colitis mouse model assessed as number of Treg cells in mesenteric lymph nodes at 200 mg/kg, po administered for 10 consecutive days by flow cytometry analysis (Rvb= 7.52%); type: functional; conditions: time 10 day
Mus musculus [2] = assay: Antiinflammatory activity in DSS-induced ulcerative colitis mouse model assessed as protection against inflammation of colons at 200 mg/kg, po administered for 10 consecutive days by HE staining based histopathological analysis; type: functional, organism-based; conditions: time 10.0 day
Mus musculus [3] = assay: Antiinflammatory activity in DSS-induced ulcerative colitis mouse model assessed as reduction in MPO activity at 200 mg/kg, po administered for 10 consecutive days; type: functional, organism-based; conditions: time 10.0 day
Mus musculus [4] = assay: Antiinflammatory activity in DSS-induced ulcerative colitis mouse model assessed as protection against colon destruction at 200 mg/kg, po administered for 10 consecutive days by HE staining based histopathological analysis; type: functional, organism-based; conditions: time 10.0 day
Mus musculus [5] = assay: Induction of Treg cell differentiation in DSS- induced ulcerative colitis mouse model assessed as number of Treg cells in colonic lamina proprias at 200 mg/kg, po administered for 10 consecutive days by flow cytometry analysis (Rvb= 7.97%); type: functional; conditions: time 10 day
Mus musculus [6] = assay: Antiinflammatory activity in DSS-induced ulcerative colitis mouse model assessed as reduction in DAI score at 200 mg/kg, po administered for 10 consecutive days; type: functional, organism-based; conditions: time 10.0 day
Mus musculus [7] = assay: Induction of Treg cell differentiation in DSS- induced ulcerative colitis mouse model assessed as number of Treg cells in spleens at 200 mg/kg, po administered for 10 consecutive days by flow cytometry analysis (Rvb= 6.49%); type: functional; conditions: time 10 day
Mus musculus [8] = assay: Antiinflammatory activity in DSS-induced ulcerative colitis mouse model assessed as rescue of colon length shortening at 200 mg/kg, po administered for 10 consecutive days; type: functional, organism-based; conditions: time 10.0 day
Mus musculus [9] = assay: Induction of Treg cell differentiation in DSS- induced ulcerative colitis mouse model assessed as number of Treg cells in colonic lamina proprias at 28 mg/kg, po administered for 10 consecutive days by flow cytometry analysis (Rvb= 7.97%); type: functional; conditions: time 10 day
Mus musculus [10] = assay: Induction of Treg cell differentiation in DSS- induced ulcerative colitis mouse model assessed as increase in IL-10 mRNA level at 28 to 56 mg/kg, po administered for 10 consecutive days by Q-PCR analysis; type: functional, organism-based; conditions: dose 28-56 mg/kg, time 10.0 day
T-cell [11] = assay: Induction of cell differentiation in anti-CD3/CD28 stimulated naive T-cells assessed as number of Treg cells at 3 uM measured after 72 hrs by flow cytometry analysis (reference value: 24 %); type: functional
T-cell [12] = assay: Induction of cell differentiation in anti-CD3/CD28 stimulated naive T-cells assessed as number of Treg cells at 1 uM measured after 72 hrs by flow cytometry analysis (reference value: 24 %); type: functional
Mus musculus [13] = assay: Antiinflammatory activity in DSS-induced ulcerative colitis mouse model assessed as protection against inflammation of colons at 28 to 56 mg/kg, po administered for 10 consecutive days by HE staining based histopathological analysis; type: functional, organism-based; conditions: dose 28-56 mg/kg, time 10.0 day
Mus musculus [14] = assay: Induction of Treg cell differentiation in DSS- induced ulcerative colitis mouse model assessed as number of Treg cells in mesenteric lymph nodes at 28 mg/kg, po administered for 10 consecutive days by flow cytometry analysis (Rvb= 7.52%); type: functional; conditions: time 10 day
Mus musculus [15] = assay: Induction of Treg cell differentiation in DSS- induced ulcerative colitis mouse model assessed as increase in Foxp3 mRNA level at 28 to 56 mg/kg, po administered for 10 consecutive days by Q-PCR analysis; type: functional, organism-based; conditions: dose 28-56 mg/kg, time 10.0 day
Mus musculus [16] = assay: Induction of Treg cell differentiation in DSS- induced ulcerative colitis mouse model assessed as number of Treg cells in mesenteric lymph nodes at 56 mg/kg, po administered for 10 consecutive days by flow cytometry analysis (Rvb= 7.52%); type: functional; conditions: time 10 day
Mus musculus [17] = assay: Antiinflammatory activity in DSS-induced ulcerative colitis mouse model assessed as rescue of colon length shortening at 28 to 56 mg/kg, po administered for 10 consecutive days; type: functional, organism-based; conditions: dose 28-56 mg/kg, time 10.0 day
T-cell [18] = assay: Induction of cell differentiation in anti-CD3/CD28 stimulated naive T-cells assessed as upregulation of Foxp3 mRNA expression at 0.3 to 3 uM measured after 72 hrs by Q-PCR analysis; type: functional, cell-based; conditions: dose 0.3-3 µM
Mus musculus [19] = assay: Antiinflammatory activity in DSS-induced ulcerative colitis mouse model assessed as reduction in MPO activity at 28 to 56 mg/kg, po administered for 10 consecutive days; type: functional, organism-based; conditions: dose 28-56 mg/kg, time 10.0 day
T-cell [20] = assay: Induction of cell differentiation in anti-CD3/CD28 stimulated naive T-cells assessed as number of Treg cells at 0.3 uM measured after 72 hrs by flow cytometry analysis (reference value: 24 %); type: functional
T-cell [21] = assay: Induction of cell differentiation in anti-CD3/CD28 stimulated naive T-cells assessed as upregulation of Foxp3 mRNA expression at 1 uM measured after 72 hrs by Q-PCR analysis; type: functional, cell-based
T-cell [22] = assay: Induction of cell differentiation in anti-CD3/CD28 stimulated naive T-cells assessed as upregulation of IL-10 mRNA expression at 0.3 to 3 uM measured after 72 hrs by Q-PCR analysis; type: functional, cell-based; conditions: dose 0.3-3 µM
Mus musculus [23] = assay: Induction of Treg cell differentiation in DSS- induced ulcerative colitis mouse model assessed as number of Treg cells in colonic lamina proprias at 56 mg/kg, po administered for 10 consecutive days by flow cytometry analysis (Rvb= 7.97%); type: functional; conditions: time 10 day
EL4 = assay: Cytotoxicity against mouse EL4 cells assessed as effect on cell viability at 1 to 10 uM measured after 72 hrs by MTT assay; type: cell-based; conditions: el4, 72 h, dose 1-10 µM
Mus musculus [24] = assay: Induction of Treg cell differentiation in DSS- induced ulcerative colitis mouse model assessed as number of Treg cells in spleens at 56 mg/kg, po administered for 10 consecutive days by flow cytometry analysis (Rvb= 6.49%); type: functional; conditions: time 10 day
T-cell [25] = assay: Induction of cell differentiation in anti-CD3/CD28 stimulated naive T-cells assessed as upregulation of CD4+ CD25+ cell frequency at 1 uM measured after 72 hrs by flow cytometry analysis; type: functional, cell-based
Mus musculus [26] = assay: Antiinflammatory activity in DSS-induced ulcerative colitis mouse model assessed as reduction in DAI score at 28 to 56 mg/kg, po administered for 10 consecutive days; type: functional, organism-based; conditions: dose 28-56 mg/kg, time 10.0 day
Mus musculus [27] = assay: Induction of Treg cell differentiation in DSS- induced ulcerative colitis mouse model assessed as number of Treg cells in spleens at 28 mg/kg, po administered for 10 consecutive days by flow cytometry analysis (Rvb= 6.49%); type: functional; conditions: time 10 day
Mus musculus [28] = assay: Antiinflammatory activity in DSS-induced ulcerative colitis mouse model assessed as protection against colon destruction at 28 to 56 mg/kg, po administered for 10 consecutive days by HE staining based histopathological analysis; type: functional, organism-based; conditions: dose 28-56 mg/kg, time 10.0 day

SMILES: Nc1ccc(O)c(C(=O)O)c1 [MESALAMINE]
- Activity (Mus musculus [1]): 7.7%
- Activity (Mus musculus [2]): Active
- Activity (Mus musculus [3]): Active
- Activity (Mus musculus [4]): Active
- Activity (Mus musculus [5]): 9.59%
- Activity (Mus musculus [6]): Active
- Activity (Mus musculus [7]): 5.9%
- Activity (Mus musculus [8]): Active

SMILES: COc1cc2c(cc1O)CC1c3c(cc(OC)c(O)c3-2)CCN1C(=O)c1cc(C)cc(C)c1 (centres undefined)
- Activity (Mus musculus [9]): 13.57%
- Activity (Mus musculus [10]): Active
- Activity (T-cell [11]): 36%
- Activity (T-cell [12]): 31.1%
- Activity (Mus musculus [13]): Active
- Activity (Mus musculus [14]): 11.55%
- Activity (Mus musculus [15]): Active
- Activity (Mus musculus [16]): 12.32%
- Activity (Mus musculus [17]): Active
- Activity (T-cell [18]): Active
- Activity (Mus musculus [19]): Active
- Activity (T-cell [20]): 25.2%
- Activity (T-cell [21]): Active
- Activity (T-cell [22]): Active
- Activity (Mus musculus [23]): 14.5%
- Activity (EL4): Non-Toxic
- Activity (Mus musculus [24]): 7.87%
- Activity (T-cell [25]): inactive
- Activity (Mus musculus [26]): Active
- Activity (Mus musculus [27]): 7.03%
- Activity (Mus musculus [28]): Active
